Laboratory results taken from patent US10701931B2, “Mosquito activating formulations” (Commonwealth Scientific and Industrial Research Organisation, priority 2015, dated 2020).
Several values for one entry are separate records, joined by “and”; a condition that tells them apart may be missing. Identical values can stand only once.

Tests used:
Total mosquito = experiment: Field trial with CDC light traps, total mosquito catch; format: in vivo; conditions: CDC light trap, one night, treatment per Table 3
Experimental: (§1) Field trials based on an imperfect Latin square design compared the attraction of An. farauti to MTPE with and without CO2. Treatments included CO2 alone, CO2 in combination with MTPE lure, or MTPE lure alone. Centres for Disease Control and Prevention (CDC) light traps were used to deliver MTPE lures and/or CO2. MTPE lures consisted of 500 μl of MTPE in mineral oil, 10-100,000 ppm spread on filter paper. MTPE/mineral oil mixtures were spread on filter paper, rolled into a tight wick, and inserted into a specimen tube. Specimen tubes where then wired to a CDC trap. CO2 was delivered using 1 kg dry ice, hung above a CDC light trap, as per standard sampling protocols. MTPE+/−CO2 combinations were randomised between 4 trap positions over three nights. Traps were placed at least 50 m apart to manage interference and were set between 5 pm and 7 am each night. Trap catches were subsequently returned to the laboratory, counted and identified as “Anopheles farauti s.l” or “other”.
(§2) As CO2 is a known mosquito attractant, all catches were compared to CO2 alone.

Anopheles stephensi = experiment: Y-tube olfactometer, measurement of activation against clean air; format: in vivo; conditions: for Activation (against clean air): An. stephensi females
Experimental: A y-tube olfactometer was used to establish whether the volatile components of human breath elicited behavioural responses in the malaria vector Anopheles stephensi. The MR4 strain of An. stephensi (New Delhi, India) was maintained at 27° C., 70% RH, 12:12 L:D and 30 min dawn/dusk periods). 4 to 7 day old female mosquitoes, that had never received a blood meal, were used in experiments. Mosquitoes were maintained on 10% sugar solution ad libitum but starved for 12 hr prior to testing. The Y tube olfactometer is made entirely of glass and consists of a release chamber, the Y tube itself, and a trap chamber attached to each arm (FIG. 1). Each trap chamber is divided in two by a fine glass filter. On the far side of those filters, the trap chambers can connect to charcoal filters or to gas bags or gas cylinders. Air is pulled through the olfactometer by connecting the release chamber to a vacuum tap which vents the contents of the tube. Standard air flow (0.4 L/minute) is maintained using a 0.1-1.2 LPM flow meter (John Morris Pty, LTD). The air volume of the Y-tube is approximately 1 litre and is therefore replaced every 2.5 minutes. One arm is attached to a gas bag of clean air (from a compressed air cylinder) […]. The other arm remains connected to a carbon filter and the air inlet to give a plume of compressed air plus test stimuli (i.e. standard air concentration of CO2 only). 1 μl 10^−2 to 10^−5% test stimuli in mineral oil (Sigma Aldrich) was spotted on 1 cm^2 Whatman filter paper. Test stimuli was delivered by placing treated filter paper between the air inlet and the trap chamber to give a plume of compressed air plus test stimuli (i.e. standard air concentration of CO2 only). All experiments were run under PC2 quarantine conditions, at 27° C., 70% RH, under infrared light. Observers were always in the same position during the tests, at the trap chamber end of the olfactometer, between the 2 arms of the Y tube. Using an aspirator, 25-30 starved female An. stephensi were introduced into the release chamber (FIG. 1). […] After each test, mosquitoes were carefully aspirated from the apparatus by disconnecting constituent parts. The apparatus was flushed with clean air (charcoal filters only) for 5 minutes before the next batch of stimuli was introduced. A total of 10 replicates (different batches of mosquitoes) were run for each stimuli assessment. Treatment and control arms were alternated between replicates. After completion of 10 replicates, the apparatus was rinsed in acetone and allowed to dry overnight. Initial experiments were therefore less concerned with directional responses and more with establishing the range of doses that appeared to cause some form of excitation. Those initial experiments were conducted in comparison to a neutral control (a negative would be repellent) of clean air drawn through a charcoal filter. The test stimuli were tested against mosquitoes at serial dilutions in the range 10^−2 to 10^−5%. Once mosquitoes had stopped responding, the numbers in the olfactometer arms, base leg and release chamber were counted. Mosquitoes were assumed to have been “activated” if they moved into the Y tube arms.

[1] = tested on: Anopheles stephensi antennae; experiment: Electroantennogram (EAG), non bloodfed females
Experimental: (§3) In order to assess Y-tube olfactometry experiments and field trials using an independent technique and to investigate the physiological basis of the observed activation and attraction behaviour, electroanntennogram (EAG) and electropalpogram (EPG) studies were performed on A. stephensi female mosquitoes. EAG studies were also performed on Anopheles farauti, Culex annulirostris and Aedes aegypti female mosquitoes.
(§4) Five to eight days Anopheles stephensi, two to fourteen days old Culex annulirostris and Aedes aegypti as well as four days old Anopheles faraulti non-blooded females, fed on 10% sucrose ad-libitum and then starved for >12 hours, were used. Mosquito head was excised and placed on the reference electrode coated with electrode gel (Parker Laboratories, Orange, N.J.). The distal end of the antennae or palp (<0.5 mm), cut to ensure a good electrical contact, were carefully placed on the recording electrode (Syntech, Germany). Signals were fed to a 10× amplifier and processed with IDAC 4 and PC-based interface and EAG software package (Syntech, Germany).
(§5) Thus 1-octen-3-ol was used in the EAG analysis as a positive control with thio compounds, (E and Z)-1-methylthio-1-propene, 3-methyl-thio-1-propanol, ally methyl sulphide, and carbon dioxide (5%) and mineral oil (negative control). Pure chemicals were diluted in mineral oil to a 10 times v/v stock solution, from which decadal dilutions were made. A 10 μl aliquot of each solution was applied to a filter paper strip (1×3.5 cm; Whatman No. 4, Fisher Scientific) and the solvent was evaporated under a fume hood before inserting the paper strip into 5 ml disposable plastic syringe (Terumo syringes). A 500 ms pulse (5 ml/s) was delivered by stimulus controller CS-55 (Syntech, Germany) to deliver chemical stimulants to a humidified continuous air flow (10 ml/s) over the electrophysiolgical preparation. The chemicals were tested randomly and applied with 0.5-1 min intervals between stimulations.
(§6) Initial screening was performed using a 10 times dilution (1/10, v/v) source dose solution. Then 1-methylthio-1-propene and 1-octen-3-ol were selected for further dose-response study. A minimum of five mosquitoes were tested for each compound to calculate the average EAG amplitude±standard error (SE).

[2] = tested on: Anopheles farauti antennae; experiment: Electroantennogram (EAG), non bloodfed females; conditions: chemicals at 1/10 concentrations
Experimental: as §3, §4, §5, §6

Anopheles farauti s.l = experiment: Field trial with CDC light traps, Anopheles farauti s.l catch; format: in vivo; conditions: for Anopheles farauti s.l catch numbers: CDC light trap, one night, treatment per Table 3
Experimental: as §1, §2

SMILES: CC=CSC [MTPE, 1-methylthio-1-propene]
- Total mosquito catch numbers (Total mosquito; 100 ppm MTPE lure alone): 189
- Total mosquito catch numbers (Total mosquito; CO2 + 1000 ppm MTPE lure): 203 and 264 and 358
- Concentration of greatest activation response (Anopheles stephensi; against clean air, tested 10^-2 to 10^-5%): 0.0001 % v/v
- Activation compared with that at 0.0001% v/v (Anopheles stephensi; at lower (0.00001%) and higher (0.001-0.01%) concentrations (v/v)): reduced
- Activation (against clean air) (Anopheles stephensi; dilution 0.00001 (10^-5)% in mineral oil): Yes
- Activation (against clean air) (Anopheles stephensi; dilution 0.0001 (10^-4)% in mineral oil): Yes
- Activation (against clean air) (Anopheles stephensi; dilution 0.001 (10^-3)% in mineral oil): Yes
- Activation (against clean air) (Anopheles stephensi; dilution 0.01 (10^-2)% in mineral oil): Yes
- EAG response, comparison among tested chemicals ([1]; chemicals at 1/10 concentrations): strongest response
- EAG response, dose dependence ([1]; decadal dilutions, n=7): dose dependant
- EAG response, comparison among tested chemicals [2]: strongest response
- Attractancy in field trial, compared to CO2 alone (Anopheles farauti s.l; 100 ppm): attractive
- Anopheles farauti s.l catch numbers (Anopheles farauti s.l; 100 ppm MTPE lure alone): 28
- Attractancy in field trial, effect of CO2 (Anopheles farauti s.l; 1,000 ppm MTPE with CO2): CO2 synergises attractancy
- Attractancy in field trial, compared to CO2 alone (Anopheles farauti s.l; 10,000 ppm): not attractive, possibly repellent
- Attractancy in field trial, compared to CO2 alone (Anopheles farauti s.l; 100,000 ppm): not attractive, possibly repellent
- Anopheles farauti s.l catch numbers (Anopheles farauti s.l; CO2 + 1000 ppm MTPE lure): 89 and 78 and 63
- Dose dependence of attractancy in field trial (Anopheles farauti s.l; MTPE lures 100-100,000 ppm): Dose dependent attractancy
